Each block holds one compound with its values, some of them ahead of it.
Experiments:
[1] = tested on: hERG channels; conditions: cited from earlier work; for % of hERG current blocked: 10 μM
[2] = molecular target: hERG (Homo sapiens, UniProt Q12809); assay: Whole-cell patch-clamp, CHO cells transiently transfected with hERG; conditions: for hERG-blocking activity: 10 μM; for inhibition at 10 µM: human, pH 7.4, % of hERG inhibition, tail currents at −100 mV
[3] = tested on: KCNT1 versus KCNT2 channels; conditions: cited from earlier work
[4] = molecular target: T1, human KCNT1 (Homo sapiens, UniProt Q5JUK3); assay: FluxOR thallium; type: cell-based
T1 sequence (Q5JUK3 1-1256 isoform Q5JUK3-2): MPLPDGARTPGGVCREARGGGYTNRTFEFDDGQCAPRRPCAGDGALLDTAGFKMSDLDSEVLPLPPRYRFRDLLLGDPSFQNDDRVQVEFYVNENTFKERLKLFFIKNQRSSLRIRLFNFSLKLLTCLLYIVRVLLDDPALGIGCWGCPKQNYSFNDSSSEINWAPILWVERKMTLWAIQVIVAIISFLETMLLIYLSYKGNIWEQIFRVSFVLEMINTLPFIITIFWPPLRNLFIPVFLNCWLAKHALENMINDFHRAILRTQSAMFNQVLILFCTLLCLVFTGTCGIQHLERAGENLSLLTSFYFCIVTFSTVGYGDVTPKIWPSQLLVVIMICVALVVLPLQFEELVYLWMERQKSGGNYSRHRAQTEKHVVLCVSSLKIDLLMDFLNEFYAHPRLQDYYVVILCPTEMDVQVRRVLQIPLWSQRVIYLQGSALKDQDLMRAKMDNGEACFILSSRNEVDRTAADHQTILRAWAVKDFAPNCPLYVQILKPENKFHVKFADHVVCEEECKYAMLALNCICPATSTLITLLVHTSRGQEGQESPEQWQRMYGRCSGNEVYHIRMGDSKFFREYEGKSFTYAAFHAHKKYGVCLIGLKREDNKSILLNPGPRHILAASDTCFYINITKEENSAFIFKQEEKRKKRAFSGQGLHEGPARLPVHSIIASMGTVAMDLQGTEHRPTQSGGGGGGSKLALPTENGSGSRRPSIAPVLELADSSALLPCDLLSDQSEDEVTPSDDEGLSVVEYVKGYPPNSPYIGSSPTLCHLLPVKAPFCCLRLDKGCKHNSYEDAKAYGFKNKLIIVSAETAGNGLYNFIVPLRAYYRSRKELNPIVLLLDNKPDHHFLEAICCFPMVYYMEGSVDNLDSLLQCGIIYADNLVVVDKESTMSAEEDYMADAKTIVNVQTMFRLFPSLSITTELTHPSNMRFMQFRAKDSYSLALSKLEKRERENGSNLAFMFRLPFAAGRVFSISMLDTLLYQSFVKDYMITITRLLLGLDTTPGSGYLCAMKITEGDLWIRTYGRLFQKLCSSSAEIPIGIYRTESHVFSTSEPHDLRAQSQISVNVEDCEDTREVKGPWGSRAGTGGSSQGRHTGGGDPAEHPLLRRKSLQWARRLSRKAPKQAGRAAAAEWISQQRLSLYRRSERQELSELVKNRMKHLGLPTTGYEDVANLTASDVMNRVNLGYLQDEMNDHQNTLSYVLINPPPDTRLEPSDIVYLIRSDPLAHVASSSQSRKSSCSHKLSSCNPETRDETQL

[5] = tested on: untransfected CHO cells; assay: FluxOR Tl+ fluorescence assay in untransfected CHO cells; type: cell-based, Chinese Hamster; conditions: 10 μM
[6] = Human plasma stability; type: in vitro ADME
[7] = Plasma protein binding; type: in vitro ADME; conditions: 10 μM, 4 h, 37 °C
[8] = In vitro drug metabolism using human liver microsomes; conditions: HLM
[9] = tested on: KCNT2; conditions: up to 10 μM, Tl+ flux assay; cited from earlier work
[10] = molecular target: T2, human KCNT2 (Homo sapiens, UniProt Q6UVM3); assay: Whole-cell patch-clamp, HEK cells expressing KCNT2; type: cell-based; conditions: KCNT2 currents
T2 sequence (Q6UVM3 1-1135): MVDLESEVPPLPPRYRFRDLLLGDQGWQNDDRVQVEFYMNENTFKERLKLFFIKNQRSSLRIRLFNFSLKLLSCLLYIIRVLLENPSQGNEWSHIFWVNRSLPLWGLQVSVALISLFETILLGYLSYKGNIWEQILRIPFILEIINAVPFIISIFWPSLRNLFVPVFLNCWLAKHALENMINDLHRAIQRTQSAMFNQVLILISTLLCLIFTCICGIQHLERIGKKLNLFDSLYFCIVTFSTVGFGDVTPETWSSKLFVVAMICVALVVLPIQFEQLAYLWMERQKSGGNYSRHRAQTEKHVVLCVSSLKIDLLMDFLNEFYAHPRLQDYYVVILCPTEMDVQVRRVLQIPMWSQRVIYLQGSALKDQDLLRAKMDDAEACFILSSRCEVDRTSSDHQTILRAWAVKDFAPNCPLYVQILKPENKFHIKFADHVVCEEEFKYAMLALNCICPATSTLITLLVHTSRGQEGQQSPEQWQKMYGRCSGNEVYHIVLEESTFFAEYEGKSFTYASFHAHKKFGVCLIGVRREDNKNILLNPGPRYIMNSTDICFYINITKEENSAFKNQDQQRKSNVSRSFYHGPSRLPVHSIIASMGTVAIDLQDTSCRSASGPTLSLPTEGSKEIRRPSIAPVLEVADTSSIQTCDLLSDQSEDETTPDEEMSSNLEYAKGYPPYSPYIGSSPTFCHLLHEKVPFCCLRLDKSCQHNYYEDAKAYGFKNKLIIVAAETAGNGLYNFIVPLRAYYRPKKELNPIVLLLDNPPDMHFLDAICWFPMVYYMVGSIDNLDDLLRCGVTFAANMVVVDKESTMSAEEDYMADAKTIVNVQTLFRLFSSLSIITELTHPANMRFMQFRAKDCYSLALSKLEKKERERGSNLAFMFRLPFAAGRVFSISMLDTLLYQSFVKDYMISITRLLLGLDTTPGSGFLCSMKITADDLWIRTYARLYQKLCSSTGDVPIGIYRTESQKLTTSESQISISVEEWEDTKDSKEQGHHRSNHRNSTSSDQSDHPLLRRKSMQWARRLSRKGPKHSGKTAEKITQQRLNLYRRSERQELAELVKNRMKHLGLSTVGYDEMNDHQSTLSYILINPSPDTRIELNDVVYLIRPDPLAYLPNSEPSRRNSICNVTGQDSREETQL

[11] = tested on: KCNT1; conditions: read-out: KCNT1 IC50; cited from earlier work
[12] = molecular target: T1, human KCNT1; assay: Whole-cell patch-clamp, CHO cells transiently transfected with hKCNT1; type: cell-based; conditions: 10 μM

hERG, sequence (Q12809 whole entry): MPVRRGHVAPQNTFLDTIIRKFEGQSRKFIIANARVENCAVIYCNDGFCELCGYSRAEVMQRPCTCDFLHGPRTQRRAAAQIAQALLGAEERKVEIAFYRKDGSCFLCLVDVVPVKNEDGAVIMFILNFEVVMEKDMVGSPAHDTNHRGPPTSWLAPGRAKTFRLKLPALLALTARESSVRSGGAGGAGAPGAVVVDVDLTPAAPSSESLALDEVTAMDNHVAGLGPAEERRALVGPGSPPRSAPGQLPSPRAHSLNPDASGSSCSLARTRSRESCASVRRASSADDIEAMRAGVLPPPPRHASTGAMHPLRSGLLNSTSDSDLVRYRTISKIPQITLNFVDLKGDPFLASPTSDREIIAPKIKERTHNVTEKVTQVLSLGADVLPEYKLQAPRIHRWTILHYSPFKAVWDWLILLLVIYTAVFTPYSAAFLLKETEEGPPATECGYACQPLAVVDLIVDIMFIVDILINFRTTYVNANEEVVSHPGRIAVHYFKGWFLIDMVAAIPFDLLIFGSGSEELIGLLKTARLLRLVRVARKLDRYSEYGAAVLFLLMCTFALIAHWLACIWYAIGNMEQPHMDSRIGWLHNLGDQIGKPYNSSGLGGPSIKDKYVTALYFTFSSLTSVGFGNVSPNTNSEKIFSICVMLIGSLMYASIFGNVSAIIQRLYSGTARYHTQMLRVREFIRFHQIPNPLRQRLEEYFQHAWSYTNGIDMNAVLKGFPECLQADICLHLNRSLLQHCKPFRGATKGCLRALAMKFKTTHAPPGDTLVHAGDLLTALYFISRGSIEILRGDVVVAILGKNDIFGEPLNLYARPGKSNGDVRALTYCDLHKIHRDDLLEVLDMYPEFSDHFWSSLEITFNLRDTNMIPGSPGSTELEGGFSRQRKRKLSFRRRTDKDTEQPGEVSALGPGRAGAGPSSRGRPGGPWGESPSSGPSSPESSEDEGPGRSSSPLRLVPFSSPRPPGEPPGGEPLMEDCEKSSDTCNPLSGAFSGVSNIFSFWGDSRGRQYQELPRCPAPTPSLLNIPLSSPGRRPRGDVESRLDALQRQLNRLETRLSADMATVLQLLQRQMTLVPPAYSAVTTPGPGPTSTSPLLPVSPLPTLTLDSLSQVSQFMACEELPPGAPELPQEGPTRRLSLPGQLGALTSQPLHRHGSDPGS

SMILES: O=C(Nc1cccc(C(F)(F)F)c1)c1ccc2nc(N3C(=O)c4ccccc4C3=O)sc2c1 [BC12]
% of hERG current blocked [1]: 15–20%

SMILES: CCOC(=O)[C@@H]1CS[C@@]2(C(=O)Nc3ccc(Br)cc32)N1C(=O)c1ccc(Cl)cc1 [CPK16, (2′S,4′R)-Ethyl 5-bromo-3′-(4-chlorobenzoyl)-2-oxospiro[indoline-3,2′-thiazolidine]-4′-carboxylate]
hERG-blocking activity [2]: devoid of hERG-blocking activity

SMILES: CCCCCCC[N+](CC)(CC)CCCCc1ccc(Cl)cc1 [clofilium]
inhibitory potency KCNT1 versus KCNT2 [3]: stronger inhibitory potency for KCNT1 versus KCNT2 channels

EC50 [4]: 4 ± 1.7 µM | slope of the Tl+ fluorescence curve ([4]; 10 μM, 15 min preincubation, KCNT1 stably transfected CHO cells): 0.041 ± 0.006
SMILES: CN1CCN(C2=Nc3ccccc3Oc3ccc(Cl)cc32)CC1 [LOX, loxapine]
slope of the Tl+ fluorescence curve [5]: 0.0007 ± 0.0006

recovery at 120 min [6]: ≥ 80% | binding to plasma proteins [7]: 99% | clearance category [8]: high | CLint in vivo ([8]; NADPH + UDPGA, scaled with human PBSF): < 80 mL min^–1 kg^–1
SMILES: O=C(NCc1ccccc1)[C@H](Cc1c[nH]c2ccccc12)NCc1ccc(Oc2ccccc2)cc1 [CPK18, (S)-N-Benzyl-3-(1H-indol-3-yl)-2-[(4-phenoxybenzyl)amino]propanamide]
hERG-blocking activity [2]: devoid of hERG-blocking activity

SMILES: COc1ccc(Cl)cc1NC(=O)CN1CCN(S(=O)(=O)N2CCC(C)CC2)CC1 [VU0606170]
KCNT2 blocking effect [9]: no KCNT2 blocking effect

SMILES: Cc1cc(O)ccc1N/C=C/C(=O)c1ccccc1 [BC13]
% of hERG current blocked [1]: 15–20%

Hill slope (k values) [10]: −0.57 ± 0.09 mV/efold | recovery at 120 min [6]: ≥ 80% | binding to plasma proteins [7]: 99% | clearance category [8]: low clearance | CLint in vitro ([8]; NADPH + UDPGA): < 1 mL min^–1 kg^–1
SMILES: O=S(=O)(Nc1ccc2c(c1)CCN2Cc1ccc(C(F)(F)F)cc1C(F)(F)F)C1CCCCC1 [CPK20, N-{1-[2,4-Bis(trifluoromethyl)benzyl]indolin-5-yl}cyclohexanesulfonamide]
hERG-blocking activity [2]: devoid of hERG-blocking activity

SMILES: C=C[C@H]1C[N@@]2CC[C@H]1C[C@@H]2[C@@H](O)c1ccnc2ccc(OC)cc12 [QND, quinidine]
IC50 [11]: 80 to 100 µM | IC50 ([1]; read-out: hERG IC50, heterologously expressed hERG channels): […]

SMILES: Oc1ccc2ccccc2c1CNCCc1c[nH]c2ccccc12 [CPK13, 1-{[(2-(1H-Indol-3-yl)ethyl]amino)methyl}naphthalen-2-ol]
blocking time constant (τon) [12]: 17.7 ± 2.3 s | inhibition at 10 µM [2]: 30 to 40%

effect on the fluorescent signal ([4]; 10 μM, followed by LOX 10 μM): markedly reduced the fluorescent signal | blocking time constant (τon) [12]: 49.0 ± 9.6 s
SMILES: CC(C)(C)CNC(=O)Nc1ccc2c(c1)CCN2Cc1ccc(F)cc1 [CPK4, 1-[1-(4-Fluorobenzyl)indolin-5-yl]-3-neopentylurea]
inhibition at 10 µM [2]: 30 to 40%

From paper PMC11181338 (Journal of Medicinal Chemistry, 2024)
